# According to US10266564B2, “Cationic lipid cordiarimide hybrid compounds and a process for preparation thereof” (COUNCIL OF SCIENTIFIC & INDUSTRIAL RESEARCH, priority 2014, dated 2019):
# pIC50: −log10 of the molar value.
# Columns and labels:
# [1] = test system: PC-3 (human prostate cancer cells); assay: MTT assay for cell viability, PC-3; format: cell-based; details: Homo sapiens, 48 h
# Protocol: (§1) The human cancer cell lines e.g. HepG2 (hepatocellular carcinoma, ATCC® HB-8065™), PC-3 (human prostate cancer cells, ATCC® CRL-1435™), MCF-7 (breast adenocarcinoma, ATCC® […]), and mouse embryo fibroblasts (NIH/3T3, ATCC® CRL-1658™), used in the present study were obtained from the ATCC (American Type Culture Collection, USA and maintained in RPMI 1640 (Roswell Park Memorial Institute, Merck) with 10% FBS (Merck), supplemented with 1% antibiotic and antimycotic solution (Gibco, USA) at 37° C. in a humidified incubator with 5% CO2. All stock solutions of the compounds were prepared in cell culture grade DMSO (dimethyl sulfoxide) and stored at −20° C. Compounds were diluted in culture media prior to use in experiments. Annexin V-FITC apoptosis detection kits were purchased from Calbiochem. MTT dye was procured from Sigma-Aldrich. All the flow cytometry experiments were performed using a FACScan (Becton Dickinson, Mountain View, Calif.) flow cytometer, equipped with a single 488 nm argon laser.
# (§2) Cell viability was assessed by MTT assay, which is based on the reduction of MTT by mitochondrial dehydrogenases of viable cells to form a purple formazan product. Briefly, cells (5-6×10^3/well) were plated in 96 well plates. After incubating overnight, the cells were treated with […] different concentrations (100, 50, 20, 10, 5, 2.5, 1.25 μM) in triplicates with the cationic lipidated cordiarimide and intermediates for 48 h. Subsequently, 10 μL of MTT (10 mg/mL) was added to each well and incubated for 3 h. The MTT formazan formed by viable cells was dissolved in 100 μL of DMSO and shaken for 10 min. The absorbance was measured on an ELISA reader. Each test was repeated at least three times. The concentration of the compound which gives the 50% growth inhibition value corresponding to IC50, was calculated using GraphPad prism 5 software. In the present invention we have screened 26 lipidated cordiarimides and the results are described in table 1.
# [2] = test system: mouse embryo fibroblasts (NIH/3T3); assay: MTT assay for cell viability, NIH/3T3; format: cell-based; details: NIH3T3, 48 h
# Protocol: as §1, §2
# [3] = test system: MCF-7 (breast adenocarcinoma); assay: MTT assay for cell viability, MCF-7; format: cell-based, human; details: Homo sapiens, MCF7, 48 h
# Protocol: as §1, §2
# [4] = test system: HepG2 (hepatocellular carcinoma); assay: MTT assay for cell viability, HepG2; format: cell-based, human; details: Homo sapiens, HepG2, 48 h
# Protocol: as §1, §2
SMILES,pIC50 [1],pIC50 [3],pIC50 [4],pIC50 [2]
"CCN(CC)CC(=O)NC1CCC(=O)N(CC(=O)c2ccccc2)C1=O (centres unmarked) [Compound 7a, 2-Diethylamino-N-[2,6-dioxo-1-(2-oxo-2-phenyl-ethyl)-piperidin-3-yl]-acetamide]",< 4.70,< 4.70,< 4.70,< 4.70
"CCCN(CCC)CC(=O)NC1CCC(=O)N(CC(=O)c2ccccc2)C1=O (centres unmarked) [Compound 7b, 2-Dipropylamino-N-[2,6-dioxo-1-(2-oxo-2-phenyl-ethyl)-piperidin-3-yl]acetamide]",< 4.70,< 4.70,< 4.70,< 4.70
"CCCCN(CCCC)CC(=O)NC1CCC(=O)N(CC(=O)c2ccccc2)C1=O (centres unmarked) [Compound 7c, 2-Dibutylamino-N-[2,6-dioxo-1-(2-oxo-2-phenyl-ethyl)-piperidin-3-yl]-acetamide]",< 4.70,< 4.70,< 4.70,< 4.70
"CCCCCN(CCCCC)CC(=O)NC1CCC(=O)N(CC(=O)c2ccccc2)C1=O (centres unmarked) [Compound 7d, 2-Dipentylamino-N-[2,6-dioxo-1-(2-oxo-2-phenyl-ethyl)-piperidin-3-yl]-acetamide]",< 4.70,< 4.70,4.90,< 4.70
"CCCCCCN(CCCCCC)CC(=O)NC1CCC(=O)N(CC(=O)c2ccccc2)C1=O (centres unmarked) [Compound 7e, 2-Dihexylamino-N-[2,6-dioxo-1-(2-oxo-2-phenyl-ethyl)-piperidin-3-yl]-acetamide]",< 4.70,5.41,5.24,5.43
"CCCCCCCN(CCCCCCC)CC(=O)NC1CCC(=O)N(CC(=O)c2ccccc2)C1=O (centres unmarked) [Compound 7f, 2-Diheptylamino-N-[2,6-dioxo-1-(2-oxo-2-phenyl-ethyl)-piperidin-3-yl]-acetamide]",< 4.70,5.03,5.11,5.06
"CCCCCCCCN(CCCCCCCC)CC(=O)NC1CCC(=O)N(CC(=O)c2ccccc2)C1=O (centres unmarked) [Compound 7g, 2-Dioctylamino-N-[2,6-dioxo-1-(2-oxo-2-phenyl-ethyl)-piperidin-3-yl]-acetamide]",< 4.70,4.99,4.94,5.14
"CCCCCCCCCN(CCCCCCCCC)CC(=O)NC1CCC(=O)N(CC(=O)c2ccccc2)C1=O (centres unmarked) [Compound 7h, 2Dinonylamino-N-[2,6-dioxo-1-(2-oxo-2-phenyl-ethyl)-piperidin-3-yl]-acetamide]",< 4.70,4.70,< 4.70,4.97
"CCCCCCCCCCN(CCCCCCCCCC)CC(=O)NC1CCC(=O)N(CC(=O)c2ccccc2)C1=O (centres unmarked) [Compound 7i, 2-(Bis-decyl-amino)-N-[2,6-dioxo-1-(2-oxo-2-phenyl-ethyl)-piperidin-3-yl]acetamide]",< 4.70,4.85,< 4.70,< 4.70
"CCCCCCCCCCCN(CCCCCCCCCCC)CC(=O)NC1CCC(=O)N(CC(=O)c2ccccc2)C1=O (centres unmarked) [Compound 7j, N-[2,6-Dioxo-1-(oxo-2-phenyl-ethyl)-piperidine-3-yl]-2-diundecylamino-acetamide]",4.76,< 4.70,< 4.70,< 4.70
"CCCCCCCCCCCCN(CCCCCCCCCCCC)CC(=O)NC1CCC(=O)N(CC(=O)c2ccccc2)C1=O (centres unmarked) [Compound 7k, N-[2,6-Dioxo-1-(oxo-2-phenyl-ethyl)-piperidine-3-yl]-2-didodecylamino-acetamide]",< 4.70,< 4.70,< 4.70,< 4.70
"CCCCCCCCCCCCCN(CCCCCCCCCCCCC)CC(=O)NC1CCC(=O)N(CC(=O)c2ccccc2)C1=O (centres unmarked) [Compound 7l, N-[2,6-Dioxo-1-(oxo-2-phenyl-ethyl)-piperidine-3-yl]-2-ditridecylamino-acetamide]",< 4.70,< 4.70,< 4.70,< 4.70
"CCCCCCCCCCCCCCN(CCCCCCCCCCCCCC)CC(=O)NC1CCC(=O)N(CC(=O)c2ccccc2)C1=O (centres unmarked) [Compound 7m, N-[2,6-Dioxo-1-(oxo-2-phenyl-ethyl)-piperidine-3-yl]-2-ditetradecylamino-acetamide]",< 4.70,< 4.70,< 4.70,< 4.70

# Now from value to compound, other results behind:
pIC50 [1],pIC50 [3],pIC50 [4],SMILES,pIC50 [2]
< 4.70,< 4.70,< 4.70,"CC[N+](C)(CC)CC(=O)NC1CCC(=O)N(CC(=O)c2ccccc2)C1=O (centres unmarked) [Compound 8a, {[2,6-Dioxo-1-(2-oxo-2-phenyl-ethyl)-piperidin-3-ylcarbamoyl]-methyl}-Diethyl-methyl-ammonium iodide]",< 4.70
< 4.70,< 4.70,< 4.70,"CCC[N+](C)(CCC)CC(=O)NC1CCC(=O)N(CC(=O)c2ccccc2)C1=O (centres unmarked) [Compound 8b, Dipropylamm{[2,6-Dioxo-1-(2-oxo-2-phenyl-ethyl)-piperidin-3-ylcarbamoyl]-methyl}-methyl-ammonium iodide]",< 4.70
< 4.70,< 4.70,< 4.70,"CCCC[N+](C)(CCCC)CC(=O)NC1CCC(=O)N(CC(=O)c2ccccc2)C1=O (centres unmarked) [Compound 8c, Dibutyl-{[2,6-dioxo-1-(2-oxo-2-phenyl-ethyl)-piperidin-3-ylcarbamoyl]-methyl}-methyl-ammonium iodide]",< 4.70
< 4.70,< 4.70,< 4.70,"CCCCC[N+](C)(CCCCC)CC(=O)NC1CCC(=O)N(CC(=O)c2ccccc2)C1=O (centres unmarked) [Compound 8d, {[2,6-Dioxo-1-(2-oxo-2-phenyl-ethyl)-piperidin-3-ylcarbamoyl]-methyl}-Methyl-dipentyl-ammonium iodide]",< 4.70
< 4.70,< 4.70,< 4.70,"CCCCCC[N+](C)(CCCCCC)CC(=O)NC1CCC(=O)N(CC(=O)c2ccccc2)C1=O (centres unmarked) [Compound 8e, {[2,6-Dioxo-1-(2-oxo-2-phenyl-ethyl)-piperidin-3-ylcarbamoyl]-methyl}-Dihexyl-methyl-ammonium iodide]",< 4.70
< 4.70,< 4.70,5.48,"CCCCCCC[N+](C)(CCCCCCC)CC(=O)NC1CCC(=O)N(CC(=O)c2ccccc2)C1=O (centres unmarked) [Compound 8f, {[2,6-Dioxo-1-(2-oxo-2-phenyl-ethyl)-piperidin-3-ylcarbamoyl]-methyl}-Diheptyl-methyl-ammonium iodide]",< 4.70
5.06,5.19,5.49,"CCCCCCCCC[N+](C)(CCCCCCCCC)CC(=O)NC1CCC(=O)N(CC(=O)c2ccccc2)C1=O (centres unmarked) [Compound 8h, {[2,6-Dioxo-1-(2-oxo-2-phenyl-ethyl)-piperidin-3-ylcarbamoyl]-methyl}-Methyl-dinonyl-ammonium iodide]",5.56
